Experimental data: ChEMBL document CHEMBL1126953, “Quinoxaline N-oxide containing potent angiotensin II receptor antagonists: synthesis, biological properties, and structure-activity relationships” (J Med Chem, 1993)

Key:
[1] = biological target: Angiotensin II receptor type 1 (Oryctolagus cuniculus) (UniProt P34976); test: Antagonism of angiotensin II induced contraction of isolated rabbit aorta
[2] = biological target: T1, Angiotensin II receptor (AT-1) type-1 (Rattus norvegicus, UniProt P29089+P25095); test: Binding affinity of compound in presence of bovine serum albumin (BSA) at 0.01% against rat adrenal Angiotensin II receptor, type 1; format: cell-free
T1 sequence (P29089 whole entry): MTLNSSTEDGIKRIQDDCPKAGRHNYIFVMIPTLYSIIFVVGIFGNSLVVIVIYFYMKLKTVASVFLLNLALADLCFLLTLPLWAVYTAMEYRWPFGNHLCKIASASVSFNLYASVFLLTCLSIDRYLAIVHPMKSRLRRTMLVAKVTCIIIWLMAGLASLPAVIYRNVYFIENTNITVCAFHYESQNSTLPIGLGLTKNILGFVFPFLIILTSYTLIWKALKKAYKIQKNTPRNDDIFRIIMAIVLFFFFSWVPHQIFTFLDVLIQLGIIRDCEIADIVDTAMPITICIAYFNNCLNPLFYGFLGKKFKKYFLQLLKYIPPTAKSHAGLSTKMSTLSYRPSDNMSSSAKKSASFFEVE
T1 sequence (P25095 whole entry): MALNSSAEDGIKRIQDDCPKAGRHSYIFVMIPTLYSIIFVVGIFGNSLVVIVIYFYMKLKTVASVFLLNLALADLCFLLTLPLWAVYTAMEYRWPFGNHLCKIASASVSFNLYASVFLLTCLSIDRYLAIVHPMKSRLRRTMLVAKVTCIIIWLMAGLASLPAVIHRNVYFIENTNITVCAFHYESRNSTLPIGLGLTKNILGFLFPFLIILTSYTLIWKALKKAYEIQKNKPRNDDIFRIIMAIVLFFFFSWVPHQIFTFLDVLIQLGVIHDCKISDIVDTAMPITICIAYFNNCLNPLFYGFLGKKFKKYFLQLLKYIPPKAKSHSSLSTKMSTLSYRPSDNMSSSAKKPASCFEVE

[3] = biological target: T1, Angiotensin II receptor (AT-1) type-1; test: Binding affinity of compound in presence of bovine serum albumin (BSA) at 0.22% against rat adrenal Angiotensin II receptor, type 1; format: cell-free
[4] = biological target: T1, Angiotensin II receptor (AT-1) type-1; test: Binding affinity for Angiotensin II receptor, type 1 in rat adrenal cortical membranes using [125I]Sar1, Ile8-angiotensin II; format: cell membranes
[5] = biological target: T1, Angiotensin II receptor (AT-1) type-1; test: Binding affinity of compound in presence of bovine serum albumin (BSA) at 0% against rat Angiotensin II receptor, type 1; format: cell-free
[6] = biological target: T1, Angiotensin II receptor (AT-1) type-1; test: Binding affinity of compound in presence of bovine serum albumin (BSA) at 0.01% against rat Angiotensin II receptor, type 1; format: cell-free
[7] = biological target: T1, Angiotensin II receptor (AT-1) type-1; test: Binding affinity of compound in presence of bovine serum albumin (BSA) at 0% against rat adrenal Angiotensin II receptor, type 1; format: cell-free

Sequence of Angiotensin II receptor type 1 (Oryctolagus cuniculus) (P34976 whole entry, looked up): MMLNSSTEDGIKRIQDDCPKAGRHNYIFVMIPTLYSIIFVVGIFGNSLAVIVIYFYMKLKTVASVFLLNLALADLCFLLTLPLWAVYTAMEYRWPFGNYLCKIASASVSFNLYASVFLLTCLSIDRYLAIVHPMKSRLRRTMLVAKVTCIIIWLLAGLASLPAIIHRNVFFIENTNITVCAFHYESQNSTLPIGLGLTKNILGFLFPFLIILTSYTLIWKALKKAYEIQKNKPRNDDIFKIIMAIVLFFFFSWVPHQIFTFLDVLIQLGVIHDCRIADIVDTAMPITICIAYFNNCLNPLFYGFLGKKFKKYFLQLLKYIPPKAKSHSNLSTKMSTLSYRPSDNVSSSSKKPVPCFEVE

Structure (SMILES) | Kb [1] | Ki [4] | also measured
Cc1c(Oc2ccc(-c3ccccc3-c3nn[nH]n3)cc2)nc2ccccc2[n+]1[O-] | 480 nM | 550 nM | Ki [2]: 550 nM; Ki [3]: 24400 nM
CCCCOc1ccc2c(nc(Oc3ccc(-c4ccccc4-c4nn[nH]n4)cc3)c(CCCC)[n+]2[O-])c1C(=O)O | 0.27 nM | 50 nM | –
CCCCc1c(Oc2ccc(-c3ccccc3-c3nn[nH]n3)cc2)nc2c(C(=O)O)c(OCCC)ccc2[n+]1[O-] | 0.19 nM | 68 nM | –
Cc1nc2ccccc2nc1Oc1ccc(-c2ccccc2-c2nn[nH]n2)cc1 | 2300 nM | – | –
CCCCc1nc2ccccc2[n+]([O-])c1Oc1ccc(-c2ccccc2-c2nn[nH]n2)cc1 | 0.44 nM | 4.5 nM | –
CCCCc1c(Oc2ccc(-c3ccccc3-c3nn[nH]n3)cc2)nc2c(C(=O)O)c(OC)ccc2[n+]1[O-] | 0.13 nM | 17 nM | –
CCCCc1c(Oc2ccc(-c3ccccc3-c3nn[nH]n3)cc2)nc2c(C(=O)O)c(OCC)ccc2[n+]1[O-] | 0.026 nM | 1.3 nM | Ki [7]: 0.4 nM; Ki [2]: 1.3 nM
CCCCc1c(Oc2ccc(-c3ccccc3-c3nn[nH]n3)cc2)nc2c(C(=O)O)c(OCC(F)(F)F)ccc2[n+]1[O-] | 2 nM | 22 nM | –
CCCCc1c(Oc2ccc(-c3ccccc3-c3nn[nH]n3)cc2)nc2ccccc2[n+]1[O-] | 230 nM | 71 nM | Ki [2]: 71 nM; Ki [3]: 580 nM
CCCCc1c(Oc2ccc(-c3ccccc3-c3nn[nH]n3)cc2)nc2c(C(=O)O)c(OC(C)C)ccc2[n+]1[O-] | – | 28 nM | –

Further lines, with some results ahead:

Kb [1] | Ki [4] | Structure (SMILES) | also measured
0.5 nM | – | CCCCc1c(Oc2ccc(-c3ccccc3-c3nn[nH]n3)cc2)nc2c(C(=O)O)cccc2[n+]1[O-] | –
0.12 nM | 44 nM | CCCCc1nc2ccc(OCC)c(C(=O)O)c2nc1Oc1ccc(-c2ccccc2-c2nn[nH]n2)cc1 | –
13 nM | 190 nM | CCCc1nc2cccc(C(=O)O)c2nc1Oc1ccc(-c2ccccc2-c2nn[nH]n2)cc1 | –
0.97 nM | 21 nM | CCCCc1nc2ccc(F)c(C(=O)O)c2nc1Oc1ccc(-c2ccccc2-c2nn[nH]n2)cc1 | –
0.58 nM | 9 nM | CCCCc1c(Oc2ccc(-c3ccccc3-c3nn[nH]n3)cc2)nc2c(C(=O)O)c(F)ccc2[n+]1[O-] | –
0.25 nM | 7.4 nM | CCCCc1c(Oc2ccc(-c3ccccc3-c3nn[nH]n3)cc2)nc2c(C(=O)O)c(N)ccc2[n+]1[O-] | –
2.1 nM | 46 nM | CCCCc1nc2cccc(C(=O)O)c2nc1Oc1ccc(-c2ccccc2-c2nn[nH]n2)cc1 | Ki [5]: 5.5 nM; Ki [6]: 46 nM
290 nM | 137 nM | CCCCc1nc2ccccc2nc1Oc1ccc(-c2ccccc2-c2nn[nH]n2)cc1 | Ki [3]: 2200 nM
